Reference: paper PMC10051811, “Plasma and Cerebrospinal Fluid Concentrations of Micafungin Administered at High Doses in Critically Ill Infants with Systemic Candidiasis: A Pooled Analysis of Two Studies” (Pharmaceuticals, 2023)
*1 amine or outer side, *2 acyl side, *3 side chain or, on linkers, in order; H or OH if unused. Where a SMILES comes first, the peptide text is derived from it. Bridges are numbered along the chain shown (N, C = ends). [ ]: non-standard residue; d: D form. The star is where a group is joined. hTyr(3S-OH,4S-OH,3'-OSO3H) = N[C@H](C(=O)O)[C@H](O)[C@@H](O)c1ccc(O)c(OS(=O)(=O)O)c1; Orn(4R-OH,5R-OH) = O=C([C@H](C[C@@H](O)[C@@H](O)N[*:3])N[*:1])[*:2]; Pro(3S-OH,4S-Me) = C[C@H]1CN[C@H](C(=O)O)[C@H]1O; X1 = CCCCCOc1ccc(-c2cc(-c3ccc(C(=O)*)cc3)no2)cc1; Gln(3R-OH) = NC(=O)C[C@@H](O)[C@H](N)C(=O)O; Hyp = O=C(O)[C@@H]1C[C@@H](O)CN1

Tested on: invasive candidiasis
Assay: Microbiological and clinical success of micafungin therapy in infants with invasive candidiasis
Format: in vivo, human
Conditions: 8-15 mg/kg/day iv
Procedure: For this pooled analysis, we included data from a total of fifty-three neonates enrolled, aged ≤180 days (from the gestational age corrected at 37 weeks), affected with proven or suspected systemic candidiasis, whereby 3 of them had meningitis, who were treated for at least 14 days with micafungin (Mycamine®) at a dosage ranging from 8 to 15 mg/kg/day intravenously.
The dosage was formulated as a 2 mg/mL solution in 0.9% saline solution and administered intravenously over 1 h once daily. Infants who died within the first 48 h and those with acute or chronic hepatic diseases and/or known hypersensitivity to echinocandins were excluded. Each study with specific inclusion/exclusion criteria and definitions has been described in detail elsewhere.

SMILES: CCCCCOc1ccc(-c2cc(-c3ccc(C(=O)N[C@H]4C[C@@H](O)[C@@H](O)NC(=O)[C@@H]5[C@@H](O)[C@@H](C)CN5C(=O)[C@H]([C@H](O)CC(N)=O)NC(=O)[C@H]([C@H](O)[C@@H](O)c5ccc(O)c(OS(=O)(=O)O)c5)NC(=O)[C@@H]5C[C@@H](O)CN5C(=O)[C@H]([C@@H](C)O)NC4=O)cc3)no2)cc1 [micafungin] (X1-[Orn(4R-OH,5R-OH)]T[Hyp][hTyr(3S-OH,4S-OH,3'-OSO3H)][Gln(3R-OH)][Pro(3S-OH,4S-Me)]; lactam 1-C)
- Clinical recovery (infants with systemic candidiasis): all infants clinically recovered
- Microbiological success of the therapy (subjects with invasive candidiasis, mean treatment duration 16.7 days, 95% CI = 51.2–97.9): 83.3%
